Measured values as given in patent US20230015949A1, “NEISSERIA TREATMENT USING CANNABINOIDS” (priority 2019, published 2023).
In brackets after ≈: the same amount, converted by molar mass.

Tests used:
[1] = test system: Neisseria gonorrhoeae; assay: Agar dilution MIC assay, 25 isolates (Example 3); assay type: cell-based; settings: for Number of isolates at MIC 0.015 μg mL^−1 / Number of isolates at MIC 0.03 μg mL^−1 / Number of isolates at MIC 0.06 μg mL^−1 / Number of isolates at MIC 0.08 μg mL^−1 / Number of isolates at MIC 0.12 μg mL^−1 / Number of isolates at MIC 0.25 μg mL^−1 / Number of isolates at MIC 0.5 μg mL^−1 / Number of isolates at MIC 1 μg mL^−1 / Number of isolates at MIC 2 μg mL^−1 / Number of isolates at MIC 4 μg mL^−1 / Number of isolates at MIC 8 μg mL^−1 / Number of isolates at MIC >8 μg mL^−1 / Number of isolates at MIC ≤0.004 μg mL^−1: 25 isolates, agar dilution assay, MIC distribution; for MIC / MIC50 / MIC90: Neisseria gonorrhoeae, agar dilution; for MIC50 / MIC90: 25 isolates of N. gonorrhoeae
Procedure: The MIC of Neisseria gonorrhoea was established using an agar dilution MIC assay.
Test drugs were provided by Micromyx. All stock solutions were allowed to stand for at least 1 hr prior to use to auto-sterilize. Leftover stock solutions of comparator drugs were aliquoted and stored at −80° C. Suppliers, catalog/lot numbers, solvents, stock concentrations and testing ranges were as follows.
Test organisms were reference strains from the American Type Culture Collection (ATCC; Manassas, Va.), isolates from WHO, isolates from the CDC antibiotic resistance bank, and clinical isolates from the Micromyx (MMX) repository. Upon receipt at Micromyx, the isolates were streaked under suitable conditions onto agar medium appropriate to each organism and were incubated for 24-48 hr at 35° C. Colonies harvested from these growth plates were resuspended in the appropriate medium containing a cryoprotectant. Aliquots of each suspension were then frozen at −80° C.
Prior to testing, the isolates were sub-cultured onto Chocolate agar (Becton Dickenson [BD]/BBL; Sparks, Md., Cat. No. 221267, Lot No. 9346275) and placed at 35° C. in a CO2 incubator for 24 hrs.
MIC values were determined using the agar dilution method (1, 2). All serial dilutions and liquid handling were performed by hand using sterile pipettes. […] Cannabidiol was prepared as a stock solution at 100× the final concentration in the appropriate solvent and diluted according to CLSI guidelines.
Each test agent was mixed with molten (50-55° C.) GC media agar supplemented with 1% IsoVitalex. […] All other test agents were added to the medium in a ratio of 0.2 mL 100× test agent to 19.8 mL agar. Once test agents were added to the agar in a sterile tube, they were mixed gently and then poured into a sterile 110×15 mm petri dish. Plates were allowed to solidify at room temperature and placed in a laminar air flow hood with the covers off to remove condensed moisture on the agar surface.
Next, each isolate was suspended to the equivalent of a 0.5 McFarland standard in saline using a Siemens Microscan turbidity meter and diluted 1:10. Each bacterial cell suspension was then transferred to wells in a stainless-steel replicator block. The prongs on the replicator deliver approximately 1-2 μl of inoculum to an agar surface. The resulting inoculum spots contained approximately 10^4 cells/spot.
Each agar plate containing either test compound or no drug (control) was stamped with the replicator. All plates were placed with the agar surface up to allow for the inoculum to soak into the agar. The plates were inverted and incubated at 35° C. for 24 hrs in a CO2 incubator and finally inspected for growth.

[2] = Un-inoculated solubility control plate, drug precipitation; assay type: physicochemical; settings: Neisseria test medium and CAMHB
[3] = test system: Neisseria gonorrhoeae; settings: N. gonorrhoeae ATCC 49226; in parentheses in broth microdilution columns; ranges are for agar dilution testing; cited from earlier work
[4] = ATCC49226, N. gonorrhoeae ATCC 49226 (QC)
[5] = N. gonorrhoeae MMX 10409 (CIP-R)
[6] = NCTC13477, N. gonorrhoeae NCTC 13477 (WHO F)
[7] = NCTC13478, N. gonorrhoeae NCTC 13478 (WHO G)
[8] = NCTC13479, N. gonorrhoeae NCTC 13479 (WHO K)
[9] = NCTC13480, N. gonorrhoeae NCTC 13480 (WHO L)
[10] = NCTC13481, N. gonorrhoeae NCTC 13481 (WHO M)
[11] = NCTC13482, N. gonorrhoeae NCTC 13482 (WHO N)
[12] = NCTC13483, N. gonorrhoeae NCTC 13483 (WHO O)
[13] = NCTC13817, N. gonorrhoeae NCTC 13817 (WHO U)
[14] = NCTC13818, N. gonorrhoeae NCTC 13818 (WHO V)
[15] = NCTC13819, N. gonorrhoeae NCTC 13819 (WHO W)
[16] = NCTC13820, N. gonorrhoeae NCTC 13820 (WHO X)

SMILES: CO/N=C(\C(=O)N[C@@H]1C(=O)N2C(C(=O)O)=C(CSc3nc(=O)c(=O)[nH]n3C)CS[C@H]12)c1csc(N)n1 [CRO, ceftriaxone]
- Number of isolates at MIC 0.015 μg mL^−1 [1]: 6
- Number of isolates at MIC 0.03 μg mL^−1 [1]: 1
- Number of isolates at MIC 0.06 μg mL^−1 [1]: 6
- Number of isolates at MIC 0.08 μg mL^−1 [1]: 5
- Number of isolates at MIC 0.12 μg mL^−1 [1]: 1
- Number of isolates at MIC 0.25 μg mL^−1 [1]: 2
- Number of isolates at MIC 0.5 μg mL^−1 [1]: 0
- Number of isolates at MIC 1 μg mL^−1 [1]: 0
- Number of isolates at MIC 2 μg mL^−1 [1]: 1
- Number of isolates at MIC 4 μg mL^−1 [1]: 0
- Number of isolates at MIC 8 μg mL^−1 [1]: 0
- Number of isolates at MIC >8 μg mL^−1 [1]: 0
- Number of isolates at MIC ≤0.004 μg mL^−1 [1]: 3
- MIC [1, 4]: 0.015 µg/mL (≈ 0.027 µM)
- MIC ([1]; N. gonorrhoeae CDC0165): 0.06 µg/mL (≈ 0.108 µM)
- MIC ([1]; N. gonorrhoeae CDC0167): 0.004 µg/mL (≈ 0.00721 µM)
- MIC ([1]; N. gonorrhoeae CDC 0175): 0.008 µg/mL (≈ 0.0144 µM)
- MIC ([1]; N. gonorrhoeae CDC 0177): 0.015 µg/mL (≈ 0.027 µM)
- MIC ([1]; N. gonorrhoeae CDC 0178): 0.06 µg/mL (≈ 0.108 µM)
- MIC ([1]; N. gonorrhoeae CDC 0181): 0.008 µg/mL (≈ 0.0144 µM)
- MIC ([1]; N. gonorrhoeae CDC 0194): 0.25 µg/mL (≈ 0.451 µM)
- MIC ([1]; N. gonorrhoeae CDCO174): 0.06 µg/mL (≈ 0.108 µM)
- MIC [1, 5]: 0.06 µg/mL (≈ 0.108 µM)
- MIC [1, 6]: < 0.004 µg/mL
- MIC [1, 7]: 0.015 µg/mL (≈ 0.027 µM)
- MIC [1, 8]: 0.015 µg/mL (≈ 0.027 µM)
- MIC [1, 9]: 0.25 µg/mL (≈ 0.451 µM)
- MIC [1, 10]: 0.008 µg/mL (≈ 0.0144 µM)
- MIC [1, 11]: 0.008 µg/mL (≈ 0.0144 µM)
- MIC [1, 12]: 0.015 µg/mL (≈ 0.027 µM)
- MIC [1, 13]: 0.002 µg/mL (≈ 0.00361 µM)
- MIC [1, 14]: 0.015 µg/mL (≈ 0.027 µM)
- MIC [1, 15]: 0.12 µg/mL (≈ 0.216 µM)
- MIC [1, 16]: 2 µg/mL (≈ 3.61 µM)
- MIC50 [1]: 0.015 µg/mL (≈ 0.027 µM)
- MIC90 [1]: 0.25 µg/mL (≈ 0.451 µM)

SMILES: C=C(C)C1CCC(C)=CC1c1c(O)cc(CCCCC)cc1O (stereo not drawn) [CBD, 2-[3-methyl-6-(1-methylethenyl)-2-cyclohexen-1-yl]-5-pentyl-1,3-benzenediol]
- Number of isolates at MIC 0.015 μg mL^−1 [1]: 0
- Number of isolates at MIC 0.03 μg mL^−1 [1]: 0
- Number of isolates at MIC 0.06 μg mL^−1 [1]: 0
- Number of isolates at MIC 0.08 μg mL^−1 [1]: 0
- Number of isolates at MIC 0.12 μg mL^−1 [1]: 0
- Number of isolates at MIC 0.25 μg mL^−1 [1]: 0
- Number of isolates at MIC 0.5 μg mL^−1 [1]: 2
- Number of isolates at MIC 1 μg mL^−1 [1]: 14
- Number of isolates at MIC 2 μg mL^−1 [1]: 9
- Number of isolates at MIC 4 μg mL^−1 [1]: 0
- Number of isolates at MIC 8 μg mL^−1 [1]: 0
- Number of isolates at MIC >8 μg mL^−1 [1]: 0
- Number of isolates at MIC ≤0.004 μg mL^−1 [1]: 0
- MIC [1, 4]: 2 µg/mL (≈ 6.36 µM)
- MIC ([1]; N. gonorrhoeae CDC0165): 2 µg/mL (≈ 6.36 µM)
- MIC ([1]; N. gonorrhoeae CDC0166): 9 µg/mL (≈ 28.6 µM)
- MIC ([1]; N. gonorrhoeae CDC0167): 1 µg/mL (≈ 3.18 µM)
- MIC ([1]; N. gonorrhoeae CDC 0172): 7 µg/mL (≈ 22.3 µM)
- MIC ([1]; N. gonorrhoeae CDC 0175): 1 µg/mL (≈ 3.18 µM)
- MIC ([1]; N. gonorrhoeae CDC 0177): 1 µg/mL (≈ 3.18 µM)
- MIC ([1]; N. gonorrhoeae CDC 0178): 2 µg/mL (≈ 6.36 µM)
- MIC ([1]; N. gonorrhoeae CDC 0180): 7 µg/mL (≈ 22.3 µM)
- MIC ([1]; N. gonorrhoeae CDC 0181): 0.5 µg/mL (≈ 1.59 µM)
- MIC ([1]; N. gonorrhoeae CDC 0194): 1 µg/mL (≈ 3.18 µM)
- MIC ([1]; N. gonorrhoeae CDCO174): 2 µg/mL (≈ 6.36 µM)
- MIC [1, 5]: 1 µg/mL (≈ 3.18 µM)
- MIC [1, 6]: 1 µg/mL (≈ 3.18 µM)
- MIC [1, 7]: 1 µg/mL (≈ 3.18 µM)
- MIC [1, 8]: 0.5 µg/mL (≈ 1.59 µM)
- MIC [1, 9]: 2 µg/mL (≈ 6.36 µM)
- MIC [1, 10]: 1 µg/mL (≈ 3.18 µM)
- MIC [1, 11]: 1 µg/mL (≈ 3.18 µM)
- MIC [1, 12]: 1 µg/mL (≈ 3.18 µM)
- MIC ([1]; NCTC13484, N. gonorrhoeae NCTC 13484 (WHO P)): 7 µg/mL (≈ 22.3 µM)
- MIC [1, 13]: 1 µg/mL (≈ 3.18 µM)
- MIC [1, 14]: 1 µg/mL (≈ 3.18 µM)
- MIC [1, 15]: 1 µg/mL (≈ 3.18 µM)
- MIC [1, 16]: 1 µg/mL (≈ 3.18 µM)
- MIC50 [1]: 1 µg/mL (≈ 3.18 µM)
- MIC90 [1]: 2 µg/mL (≈ 6.36 µM)
- Concentration at which precipitation was seen [2]: ≥ 8000 ng/mL

SMILES: CC[C@H]1OC(=O)[C@H](C)[C@@H](O[C@H]2C[C@@](C)(OC)[C@@H](O)[C@H](C)O2)[C@H](C)[C@@H](O[C@@H]2O[C@H](C)C[C@H](N(C)C)[C@H]2O)[C@](C)(O)C[C@@H](C)CN(C)[C@H](C)[C@@H](O)[C@]1(C)O [AZI, azithromycin]
- CLSI QC range of MIC [3]: 0.25 to 1 µg/mL
